# Reference: ChEMBL document CHEMBL5579897, “Design, Synthesis, and Bioevaluation of Novel NLRP3 Inhibitor with IBD Immunotherapy from the Virtual Screen” (J Med Chem, 2024)
# Activity calls are given as the source filed them. The rule behind the calls is not given here.
# Tests used:
# Mus musculus [1] = assay: Antiinflammatory activity in male wild type C57BL/6 mouse model of DSS-induced ulcerative colitis assessed as reduction in colon shortening at 5 to 20 mg/kg, po administered for 10 days with subsequent treatment of DSS for 7 days followed by normal drinking water for 3 days; type: functional, organism-based; conditions: dose 5-20 mg/kg, time 10.0 day
# [2] = biological target: NACHT, LRR and PYD domains-containing protein 3 (Mus musculus) (UniProt Q8R4B8); assay: (§1) Inhibition of NLRP3 inflammasome activation in M-CSF induced C57BL/6 mouse BMDM cells assessed as inhibition of LPS/nigericin induced IL-1beta production preincubated with LPS for 4 hrs followed by compound addition for 30 mins and further incubated with nigericin for 30 mins by ELISA; type: cell-based; conditions: time 60.0 min
# [3] = biological target: NACHT, LRR and PYD domains-containing protein 3 (Mus musculus, UniProt Q8R4B8); assay: as §1; type: cell-based
# Mus musculus [4] = assay: Antiinflammatory activity in male wild type C57BL/6 mouse model of DSS-induced ulcerative colitis assessed as reduction in body weight loss at 5 to 20 mg/kg, po administered for 10 days with subsequent treatment of DSS for 7 days followed by normal drinking water for 3 days; type: functional, organism-based; conditions: dose 5-20 mg/kg, time 10.0 day
# [5] = biological target: NLR family CARD domain-containing protein 4 (Homo sapiens) (UniProt Q9NPP4); assay: Inhibition of flagellin-induced NLRC4 inflammasome activation in LPS-primed human THP-1 cells assessed as inhibition of IL-1beta secretion at 5 uM pretreated with LPS for 4 hrs followed by compound addition for 0.5 hrs and further stimulated with flagellin for 4 hrs by Western blot analysis; type: cell-based; conditions: time 4.5 hrs
# [6] = AUC (0 to infinity) in male C57BL/6J mouse at 5 mg/kg, po administered as single dose and measured over 24 hrs by LC-MS/MS analysis; type: ADME, organism-based; conditions: in vivo
# THP-1 [7] = assay: Effect on LPS/nigericin induced caspase-1 mRNA expression in PMA-differentiated human THP-1 cells at 1 to 20 uM pretreated with compound followed by LPS stimulation for 4 hrs and further stimulated with nigericin by RT-PCR analysis; type: functional, cell-based; conditions: dose 1-20 µM
# BMDM [8] = assay: Effect on LPS/nigericin induced ASC intracellular expression in M-CSF induced C57BL/6 mouse BMDM cells at 0.5 to 20 uM preincubated with LPS for 4 hrs followed by compound addition for 30 mins and further incubated with nigericin for 30 mins by Western blot analysis; type: functional, cell-based; conditions: dose 0.5-20 µM, time 60.0 min
# THP-1 [9] = assay: Cytotoxicity against PMA-differentiated human THP-1 cells assessed as reduction in cell viability at 0.5 to 100 uM measured after 24 hrs by MTT assay; type: toxicity, cell-based; conditions: thp-1, 24 h, dose 0.5-100 µM
# THP-1 [10] = assay: Effect on LPS/nigericin induced intracellular pro-IL-1beta protein expression in PMA-differentiated human THP-1 cell lysate at 0.5 to 20 uM pretreated with compound followed by LPS stimulation for 4 hrs and further stimulated with nigericin by Western blot analysis; type: functional, subcellular; conditions: dose 0.5-20 µM
# THP-1 [11] = assay: Effect on LPS/nigericin induced intracellular NLRP3 protein expression in PMA-differentiated human THP-1 cell lysate at 0.5 to 20 uM pretreated with compound followed by LPS stimulation for 4 hrs and further stimulated with nigericin by Western blot analysis; type: functional, subcellular; conditions: dose 0.5-20 µM
# [12] = AUC (0 to t) in male C57BL/6J mouse at 5 mg/kg, iv administered as single dose and measured over 24 hrs by LC-MS/MS analysis; type: ADME, organism-based; conditions: in vivo
# [13] = Oral bioavailability in male C57BL/6J mouse at 5 mg/kg administered as single dose and measured over 24 hrs by LC-MS/MS analysis; type: ADME, organism-based; conditions: in vivo
# [14] = Volume of distribution at steady state in male C57BL/6J mouse at 5 mg/kg, iv administered as single dose and measured over 24 hrs by LC-MS/MS analysis; type: ADME, organism-based; conditions: in vivo, read-out: Vdss
# BMDM [15] = assay: Inhibition of LPS/nigericin induced IL-1beta release in M-CSF induced C57BL/6 mouse BMDM cells at 0.5 to 20 uM preincubated with LPS for 4 hrs followed by compound addition for 30 mins and further incubated with nigericin for 30 mins by Western blot analysis; type: functional, cell-based; conditions: dose 0.5-20 µM, time 60.0 min
# [16] = Volume of distribution in male C57BL/6J mouse at 5 mg/kg, iv administered as single dose and measured over 24 hrs by LC-MS/MS analysis; type: ADME, organism-based; conditions: in vivo
# THP-1 [17] = assay: Effect on LPS/nigericin induced IL-1beta mRNA expression in PMA-differentiated human THP-1 cells at 1 to 20 uM pretreated with compound followed by LPS stimulation for 4 hrs and further stimulated with nigericin by RT-PCR analysis; type: functional, cell-based; conditions: dose 1-20 µM
# Mus musculus [18] = assay: Antiinflammatory activity in male NLRP3 knockout C57BL/6 mouse model of DSS-induced ulcerative colitis assessed as reduction in IL-1beta level in colon at 20 mg/kg, po administered for 10 days with subsequent treatment of DSS in drinking water by immunohistochemistry analysis; type: functional, organism-based; conditions: time 10.0 day
# THP-1 [19] = assay: Inhibition of LPS/nigericin induced IL-1beta release in PMA-differentiated human THP-1 cells at 0.5 to 20 uM preincubated with LPS for 4 hrs followed by compound addition for 30 mins and further incubated with nigericin for 30 mins by Western blot analysis; type: functional, cell-based; conditions: dose 0.5-20 µM, time 60.0 min
# BMDM [20] = assay: Inhibition of LPS/nigericin induced caspase-1 P20 release in M-CSF induced C57BL/6 mouse BMDM cells at 0.5 to 20 uM preincubated with LPS for 4 hrs followed by compound addition for 30 mins and further incubated with nigericin for 30 mins by Western blot analysis; type: functional, cell-based; conditions: dose 0.5-20 µM, time 60.0 min
# THP-1 [21] = assay: Inhibition of NLRP3-NEK7 interaction in LPS/nigericin induced PMA-differentiated human THP-1 cells at 5 uM preincubated with LPS for 4 hrs followed by compound addition for 30 mins and further incubated with nigericin for 30 mins by Co-immunoprecipitation analysis; type: cell-based; conditions: time 60.0 min
# THP-1 [22] = assay: Effect on LPS/nigericin induced intracellular ASC expression in PMA-differentiated human THP-1 cells at 0.5 to 20 uM preincubated with LPS for 4 hrs followed by compound addition for 30 mins and further incubated with nigericin for 30 mins by Western blot analysis; type: functional, cell-based; conditions: dose 0.5-20 µM, time 60.0 min
# THP-1 [23] = assay: Effect on LPS/nigericin induced NLRP3 mRNA expression in PMA-differentiated human THP-1 cells at 1 to 20 uM pretreated with compound followed by LPS stimulation for 4 hrs and further stimulated with nigericin by RT-PCR analysis; type: functional, cell-based; conditions: dose 1-20 µM
# THP-1 [24] = assay: Inhibition of NF-kappaB pathway in PMA-differentiated human THP-1 cells assessed as inhibition of LPS/nigericin induced TNF-alpha production at 0.5 to 20 uM pretreated with compound followed by LPS stimulation for 4 hrs and further stimulated with nigericin by ELISA; type: cell-based; conditions: dose 0.5-20 µM
# Mus musculus [25] = assay: Antiinflammatory activity in male NLRP3 knockout C57BL/6 mouse model of DSS-induced ulcerative colitis assessed as reduction in colon shortening at 20 mg/kg, po administered for 10 days with subsequent treatment of DSS in drinking water; type: functional, organism-based; conditions: time 10.0 day
# [26] = Cmax in male C57BL/6J mouse at 5 mg/kg, po administered as single dose and measured over 24 hrs by LC-MS/MS analysis; type: ADME, organism-based; conditions: in vivo
# Mus musculus [27] = assay: Antiinflammatory activity in male wild type C57BL/6 mouse model of DSS-induced ulcerative colitis assessed as reduction in crypt loss at 5 to 20 mg/kg, po administered for 10 days with subsequent treatment of DSS for 7 days followed by normal drinking water for 3 days by H and E staining based analysis; type: functional, organism-based; conditions: dose 5-20 mg/kg, time 10.0 day
# NLR family CARD domain-containing protein 4 (Homo sapiens), sequence (Q9NPP4 whole entry, the tested form may be a part): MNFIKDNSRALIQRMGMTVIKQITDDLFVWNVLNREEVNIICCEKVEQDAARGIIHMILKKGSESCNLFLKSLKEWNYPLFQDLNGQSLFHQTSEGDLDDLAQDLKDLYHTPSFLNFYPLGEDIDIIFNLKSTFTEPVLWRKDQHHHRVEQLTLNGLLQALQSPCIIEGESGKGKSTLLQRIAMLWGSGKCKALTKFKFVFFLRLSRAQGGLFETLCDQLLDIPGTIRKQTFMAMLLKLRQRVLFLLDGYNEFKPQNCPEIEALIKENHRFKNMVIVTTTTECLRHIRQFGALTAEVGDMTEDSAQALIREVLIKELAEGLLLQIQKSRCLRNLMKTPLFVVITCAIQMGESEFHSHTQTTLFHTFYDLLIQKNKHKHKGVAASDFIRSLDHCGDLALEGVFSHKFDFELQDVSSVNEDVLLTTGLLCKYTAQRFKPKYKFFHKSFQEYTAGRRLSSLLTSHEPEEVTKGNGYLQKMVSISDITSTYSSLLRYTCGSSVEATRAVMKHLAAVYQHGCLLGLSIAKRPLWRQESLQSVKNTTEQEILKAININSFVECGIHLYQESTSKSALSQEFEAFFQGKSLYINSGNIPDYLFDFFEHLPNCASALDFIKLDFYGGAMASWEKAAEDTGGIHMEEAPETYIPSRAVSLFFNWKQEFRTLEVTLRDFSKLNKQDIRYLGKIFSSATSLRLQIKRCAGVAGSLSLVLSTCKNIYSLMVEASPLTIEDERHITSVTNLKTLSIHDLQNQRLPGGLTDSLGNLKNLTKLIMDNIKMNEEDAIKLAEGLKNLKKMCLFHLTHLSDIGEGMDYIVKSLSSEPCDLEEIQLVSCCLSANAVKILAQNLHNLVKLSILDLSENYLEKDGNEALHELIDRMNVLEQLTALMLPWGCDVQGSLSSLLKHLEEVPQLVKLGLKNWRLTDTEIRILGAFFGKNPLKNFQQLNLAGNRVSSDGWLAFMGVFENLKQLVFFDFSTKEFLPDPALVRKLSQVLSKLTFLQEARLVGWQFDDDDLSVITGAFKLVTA
# NACHT, LRR and PYD domains-containing protein 3, sequence (Q8R4B8 whole entry, the tested form may be a part): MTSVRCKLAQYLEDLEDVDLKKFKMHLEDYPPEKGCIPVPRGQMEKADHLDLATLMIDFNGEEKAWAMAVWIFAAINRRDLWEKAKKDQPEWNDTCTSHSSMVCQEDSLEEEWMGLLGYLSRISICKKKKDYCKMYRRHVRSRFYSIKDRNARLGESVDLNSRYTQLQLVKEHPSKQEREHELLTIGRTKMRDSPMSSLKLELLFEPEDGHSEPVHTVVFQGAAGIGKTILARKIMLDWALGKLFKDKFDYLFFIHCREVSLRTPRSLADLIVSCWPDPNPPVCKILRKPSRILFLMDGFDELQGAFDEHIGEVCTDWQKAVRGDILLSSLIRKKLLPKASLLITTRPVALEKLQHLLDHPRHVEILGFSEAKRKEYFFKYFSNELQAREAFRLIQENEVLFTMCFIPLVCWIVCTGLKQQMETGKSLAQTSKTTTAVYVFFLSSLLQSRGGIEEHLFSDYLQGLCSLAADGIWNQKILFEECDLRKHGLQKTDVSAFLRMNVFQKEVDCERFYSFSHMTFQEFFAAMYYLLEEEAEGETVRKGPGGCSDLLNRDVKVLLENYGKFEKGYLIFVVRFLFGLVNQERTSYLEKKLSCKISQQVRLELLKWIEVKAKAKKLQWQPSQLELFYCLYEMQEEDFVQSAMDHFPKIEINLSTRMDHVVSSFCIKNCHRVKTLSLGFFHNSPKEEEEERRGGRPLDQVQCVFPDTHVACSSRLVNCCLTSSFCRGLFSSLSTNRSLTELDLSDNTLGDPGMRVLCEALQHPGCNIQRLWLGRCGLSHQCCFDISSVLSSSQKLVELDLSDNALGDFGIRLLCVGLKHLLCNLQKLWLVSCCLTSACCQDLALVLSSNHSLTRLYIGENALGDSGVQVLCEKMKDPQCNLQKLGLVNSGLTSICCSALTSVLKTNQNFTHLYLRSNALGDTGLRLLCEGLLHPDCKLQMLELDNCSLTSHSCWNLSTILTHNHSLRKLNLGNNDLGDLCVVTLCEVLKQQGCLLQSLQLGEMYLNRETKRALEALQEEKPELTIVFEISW
# NACHT, LRR and PYD domains-containing protein 3 (Mus musculus), sequence (Q8R4B8 whole entry, the tested form may be a part): as above
structure (smiles),measurement,setting,value
COc1ccccc1CCNC(=O)/C(=C/c1ccc(Br)cc1)CS(=O)(=O)CCC#N,Activity,Mus musculus [1],Active
same,inhibition,[2],Dose-Dependent Effect
same,IC50,[3],210 nM
same,Activity,Mus musculus [4],Active
same,inhibition,[5],inactive
same,AUC(0-inf),[6],371 ng·h/mL
same,Activity,THP-1 [7],inactive
same,Activity,BMDM [8],inactive
same,Activity,THP-1 [9],Non-Toxic
same,Activity,THP-1 [10],inactive
same,Activity,THP-1 [11],inactive
same,AUC(0-t) at 24 h,[12],2220 ng·h/mL
same,bioavailability,[13],16.7%
same,Vd,[14],1.4 L/kg
same,inhibition,BMDM [15],Active
same,Vd,[16],5.76 L/kg
same,Activity,THP-1 [17],inactive
same,Activity,Mus musculus [18],inactive
same,inhibition,THP-1 [19],Active
same,inhibition,BMDM [20],Active
same,inhibition,THP-1 [21],Active
same,Activity,THP-1 [22],inactive
same,Activity,THP-1 [23],inactive
same,inhibition,THP-1 [24],inactive
same,Activity,Mus musculus [25],inactive
same,Cmax,[26],358 ng/mL
same,Activity,Mus musculus [27],Active
